The subject of data set [1] is Pseudomonas fluorescens. Put plainly: Phototoxicity against Pseudomonas fluorescens at 100 ug/disk in dark. The following applies: light or radiation study, read-out: IZ. In kind it is functional.
In data set [2] the test system is Staphylococcus aureus. Briefly: Phototoxicity against Staphylococcus aureus at 100 ug/disk in dark. In kind it is functional. The following applies: light or radiation study, read-out: IZ.
Data set [3] concerns Pseudomonas fluorescens. Put plainly: Phototoxicity against Pseudomonas fluorescens at 100 ug/disk after irradiation with W/m'2 UV light. The following applies: light or radiation study, read-out: IZ. In kind it is functional.
In data set [4] the test system is CHO. Put plainly: Genotoxicity in CHO cells assessed as chromosomal aberrations at 1.56 ppm after 60 mins in dark followed by 5 W/m'2 UV irradiation for 30 mins. Format: toxicity, cell-based, Cricetulus griseus. The following applies: chinese hamster, 0.5 h.
Data set [5] deals with Enterococcus faecalis. Put plainly: Phototoxicity against Streptococcus faecalis at 100 ug/disk in dark. Format: functional. The following applies: light or radiation study, read-out: IZ.
Data set [6] deals with Saccharomyces cerevisiae. Put plainly: Phototoxicity against Saccharomyces cerevisiae at 100 ug/disk after irradiation with W/m'2 UV light. Format: functional. The following applies: light or radiation study, read-out: IZ.
The test system of data set [7] is CHO. Briefly: Genotoxicity in CHO cells assessed as chromosomal aberrations at 12.5 ppm after 90 mins in dark. Format: toxicity, cell-based, Cricetulus griseus. The following applies: chinese hamster, 1.5 h.
Data set [8] deals with CHO. Briefly: Genotoxicity in CHO cells assessed as chromosomal aberrations at 0.39 ppm after 60 mins in dark followed by 5 W/m'2 UV irradiation for 30 mins. Format: toxicity, cell-based, Cricetulus griseus. The following applies: chinese hamster, 0.5 h.
Data set [9] relates to Escherichia coli. Put plainly: Phototoxicity against Escherichia coli at 100 ug/disk after irradiation with W/m'2 UV light. In kind it is functional. The following applies: light or radiation study, read-out: IZ.
Data set [10] has as its system Enterococcus faecalis. Put plainly: Phototoxicity against Streptococcus faecalis at 100 ug/disk after irradiation with W/m'2 UV light. The following applies: light or radiation study, read-out: IZ. In kind it is functional.
The subject of data set [11] is Candida albicans. Briefly: Phototoxicity against Candida albicans at 100 ug/disk after irradiation with W/m'2 UV light. In kind it is functional. The following applies: light or radiation study, read-out: IZ.
Data set [12] has as its system Staphylococcus aureus. Briefly: Phototoxicity against Staphylococcus aureus at 100 ug/disk after irradiation with W/m'2 UV light. Format: functional. The following applies: light or radiation study, read-out: IZ.
For data set [13], the system named is CHO. Briefly: Genotoxicity in CHO cells assessed as mitotic inhibition at 3.12 ppm after 60 mins in dark followed by 5 W/m'2 UV irradiation for 30 mins. Format: toxicity, cell-based, Cricetulus griseus. The following applies: chinese hamster, 0.5 h.
Data set [14] deals with CHO. Briefly: Genotoxicity in CHO cells assessed as chromosomal aberrations at 0.19 ppm after 60 mins in dark followed by 5 W/m'2 UV irradiation for 30 mins. In kind it is toxicity, cell-based, Cricetulus griseus. The following applies: chinese hamster, 0.5 h.
Data set [15] has as its system CHO. Put plainly: Genotoxicity in CHO cells assessed as chromosomal aberrations at 6.25 ppm after 60 mins in dark followed by 5 W/m'2 UV irradiation for 30 mins. Format: toxicity, cell-based, Cricetulus griseus. The following applies: chinese hamster, 0.5 h.
For data set [16], the system named is Candida albicans. Briefly: Phototoxicity against Candida albicans at 100 ug/disk in dark. Format: functional. The following applies: light or radiation study, read-out: IZ.
For data set [17], the system named is Pseudomonas aeruginosa. Put plainly: Phototoxicity against Pseudomonas aeruginosa at 100 ug/disk after irradiation with W/m'2 UV light. The following applies: light or radiation study, read-out: IZ. In kind it is functional.
The subject of data set [18] is Bacillus subtilis. Briefly: Phototoxicity against Bacillus subtilis at 100 ug/disk in dark. The following applies: light or radiation study, read-out: IZ. Format: functional.
For data set [19], the system named is CHO. Briefly: Genotoxicity in CHO cells assessed as chromosomal aberrations at 12.5 ppm after 60 mins in dark followed by 5 W/m'2 UV irradiation for 30 mins. In kind it is toxicity, cell-based, Cricetulus griseus. The following applies: chinese hamster, 0.5 h.
The subject of data set [20] is Saccharomyces cerevisiae. Put plainly: Phototoxicity against Saccharomyces cerevisiae at 100 ug/disk in dark. Format: functional. The following applies: light or radiation study, read-out: IZ.
Data set [21] concerns Pseudomonas aeruginosa. Briefly: Phototoxicity against Pseudomonas aeruginosa at 100 ug/disk in dark. In kind it is functional. The following applies: light or radiation study, read-out: IZ.
Data set [22] has as its system Bacillus subtilis. Briefly: Phototoxicity against Bacillus subtilis at 100 ug/disk after irradiation with W/m'2 UV light. Format: functional. The following applies: light or radiation study, read-out: IZ.
The test system of data set [23] is CHO. Put plainly: Genotoxicity in CHO cells assessed as chromosomal aberrations at 0.78 ppm after 60 mins in dark followed by 5 W/m'2 UV irradiation for 30 mins. In kind it is toxicity, cell-based, Cricetulus griseus. The following applies: chinese hamster, 0.5 h.
Data set [24] deals with Escherichia coli. Put plainly: Phototoxicity against Escherichia coli at 100 ug/disk in dark. In kind it is functional. The following applies: light or radiation study, read-out: IZ.
Data set [25] has as its system Saccharomyces cerevisiae. Put plainly: Phototoxicity against Saccharomyces cerevisiae at 10 ug/disk after irradiation with W/m'2 UV light. Format: functional. The following applies: light or radiation study, read-out: IZ.
In data set [26] the test system is Staphylococcus aureus. Put plainly: Phototoxicity against Staphylococcus aureus at 10 ug/disk after irradiation with W/m'2 UV light. Format: functional. The following applies: light or radiation study, read-out: IZ.
The test system of data set [27] is Enterococcus faecalis. Put plainly: Phototoxicity against Streptococcus faecalis at 10 ug/disk after irradiation with W/m'2 UV light. The following applies: light or radiation study, read-out: IZ. Format: functional.
Data set [28] relates to Bacillus subtilis. Briefly: Phototoxicity against Bacillus subtilis at 10 ug/disk in dark. The following applies: light or radiation study, read-out: IZ. Format: functional.
The subject of data set [29] is Escherichia coli. Put plainly: Phototoxicity against Escherichia coli at 10 ug/disk after irradiation with W/m'2 UV light. Format: functional. The following applies: light or radiation study, read-out: IZ.
Data set [30] has as its system CHO. Briefly: Genotoxicity in CHO cells assessed as chromosomal aberrations at 62.5 ppm after 60 mins in dark followed by 5 W/m'2 UV irradiation for 30 mins. Format: toxicity, cell-based, Cricetulus griseus. The following applies: chinese hamster, 0.5 h.
Data set [31] concerns CHO. Put plainly: Genotoxicity in CHO cells assessed as mitotic inhibition at 3.9 ppm after 60 mins in dark followed by 5 W/m'2 UV irradiation for 30 mins. In kind it is toxicity, cell-based, Cricetulus griseus. The following applies: chinese hamster, 0.5 h.
Data set [32] concerns Escherichia coli. Put plainly: Phototoxicity against Escherichia coli at 10 ug/disk in dark. In kind it is functional. The following applies: light or radiation study, read-out: IZ.
In data set [33] the test system is CHO. Put plainly: Genotoxicity in CHO cells assessed as chromosomal aberrations at 15.6 ppm after 60 mins in dark followed by 5 W/m'2 UV irradiation for 30 mins. The following applies: chinese hamster, 0.5 h. In kind it is toxicity, cell-based, Cricetulus griseus.
For data set [34], the system named is Bacillus subtilis. Briefly: Phototoxicity against Bacillus subtilis at 10 ug/disk after irradiation with W/m'2 UV light. Format: functional. The following applies: light or radiation study, read-out: IZ.
In data set [35] the test system is CHO. Briefly: Genotoxicity in CHO cells assessed as chromosomal aberrations at 31.2 ppm after 60 mins in dark followed by 5 W/m'2 UV irradiation for 30 mins. In kind it is toxicity, cell-based, Cricetulus griseus. The following applies: chinese hamster, 0.5 h.
Data set [36] has as its system Saccharomyces cerevisiae. Put plainly: Phototoxicity against Saccharomyces cerevisiae at 10 ug/disk in dark. In kind it is functional. The following applies: light or radiation study, read-out: IZ.
Data set [37] deals with CHO. Briefly: Genotoxicity in CHO cells assessed as chromosomal aberrations at 1.9 ppm after 60 mins in dark followed by 5 W/m'2 UV irradiation for 30 mins. In kind it is toxicity, cell-based, Cricetulus griseus. The following applies: chinese hamster, 0.5 h.
Data set [38] deals with Staphylococcus aureus. Briefly: Phototoxicity against Staphylococcus aureus at 10 ug/disk in dark. Format: functional. The following applies: light or radiation study, read-out: IZ.
In data set [39] the test system is CHO. Briefly: Genotoxicity in CHO cells assessed as chromosomal aberrations at 7.8 ppm after 60 mins in dark followed by 5 W/m'2 UV irradiation for 30 mins. Format: toxicity, cell-based, Cricetulus griseus. The following applies: chinese hamster, 0.5 h.
Data set [40] deals with Pseudomonas fluorescens. Briefly: Phototoxicity against Pseudomonas fluorescens at 10 ug/disk in dark. In kind it is functional. The following applies: light or radiation study, read-out: IZ.
The test system of data set [41] is Enterococcus faecalis. Put plainly: Phototoxicity against Streptococcus faecalis at 10 ug/disk in dark. Format: functional. The following applies: light or radiation study, read-out: IZ.
Data set [42] has as its system CHO. Put plainly: Genotoxicity in CHO cells assessed as chromosomal aberrations at 125 ppm after 90 mins in dark. The following applies: chinese hamster, 1.5 h. In kind it is toxicity, cell-based, Cricetulus griseus.
The subject of data set [43] is Pseudomonas fluorescens. Put plainly: Phototoxicity against Pseudomonas fluorescens at 10 ug/disk after irradiation with W/m'2 UV light. The following applies: light or radiation study, read-out: IZ. Format: functional.
The test system of data set [44] is Candida albicans. Briefly: Phototoxicity against Candida albicans at 10 ug/disk after irradiation with W/m'2 UV light. In kind it is functional. The following applies: light or radiation study, read-out: IZ.
Data set [45] concerns CHO. Put plainly: Genotoxicity in CHO cells assessed as chromosomal aberrations at 125 ppm after 60 mins in dark followed by 5 W/m'2 UV irradiation for 30 mins. Format: toxicity, cell-based, Cricetulus griseus. The following applies: chinese hamster, 0.5 h.
The test system of data set [46] is Candida albicans. Briefly: Phototoxicity against Candida albicans at 10 ug/disk in dark. Format: functional. The following applies: light or radiation study, read-out: IZ.
In data set [47] the test system is Pseudomonas aeruginosa. Put plainly: Phototoxicity against Pseudomonas aeruginosa at 10 ug/disk in dark. Format: functional. The following applies: light or radiation study, read-out: IZ.
The subject of data set [48] is Pseudomonas aeruginosa. Briefly: Phototoxicity against Pseudomonas aeruginosa at 10 ug/disk after irradiation with W/m'2 UV light. Format: functional. The following applies: light or radiation study, read-out: IZ.

Take `Cc1ncc(C2CCCN2C)c2c1[nH]c1ccccc12` (stereo not drawn) [BREVIOCOLLINE]: the zone of inhibition at 100 µg/disc worked out at 0 mm with Pseudomonas fluorescens [1]; 0 mm with Staphylococcus aureus [2]; 7 mm in the data set with Pseudomonas fluorescens [3]; 0 mm in the data set with Enterococcus faecalis [5]; 7 mm in the data set with Saccharomyces cerevisiae [6]; 15.5 mm in the data set with Escherichia coli [9]. The zone of inhibition at 100 µg/disc is 14 mm in the data set with Enterococcus faecalis [10]; 9.5 mm with Candida albicans [11]; 15.3 mm with Staphylococcus aureus [12]; 0 mm in the data set with Candida albicans [16]; 13 mm with Pseudomonas aeruginosa [17]; 0 mm in the data set with Bacillus subtilis [18]. In addition, the zone of inhibition at 100 µg/disc in the data set with Saccharomyces cerevisiae [20] is 0 mm; with Pseudomonas aeruginosa [21] it was 0 mm; in the data set with Bacillus subtilis [22], 12.5 mm; with Escherichia coli [24], 0 mm. The Activity in the data set with CHO [4] is 56%; in the data set on CHO [7], 0%; in the data set with CHO [8], 5.5%; in the data set on CHO [13], “Active”; in the data set with CHO [14], 0%; with CHO [15], “Toxic”. For the same molecule, the Activity result in the data set on CHO [19] is “Toxic”; with CHO [23], 37.1%.
In the case of `O=c1ccc2nccc3c4ccccc4n1c23` [CANTHIN-6-ONE], the zone of inhibition at 10 µg/disc in the data set on Saccharomyces cerevisiae [25] was 13 mm; in the data set with Staphylococcus aureus [26], 10 mm; in the data set with Enterococcus faecalis [27], 0 mm; in the data set with Bacillus subtilis [28] it was 16 mm; in the data set with Escherichia coli [29], 7 mm; with Escherichia coli [32], 0 mm. The zone of inhibition at 10 µg/disc was 8.6 mm in the data set on Bacillus subtilis [34]; 9 mm in the data set with Saccharomyces cerevisiae [36]; 0 mm in the data set on Staphylococcus aureus [38]; 0 mm with Pseudomonas fluorescens [40]; 0 mm with Enterococcus faecalis [41]; 0 mm in the data set on Pseudomonas fluorescens [43]. In addition, the zone of inhibition at 10 µg/disc in the data set with Candida albicans [44] came out at 13 mm; in the data set on Candida albicans [46], 9 mm; in the data set on Pseudomonas aeruginosa [47], 0 mm; in the data set on Pseudomonas aeruginosa [48], 0 mm. Also, the Activity entry in the data set on CHO [30] is reported as “Toxic”; in the data set on CHO [31], “Active”; in the data set with CHO [33] it was “Toxic”; with CHO [35], “Toxic”; with CHO [37], 22.2%; in the data set on CHO [39], “Toxic”. Also, the Activity with CHO [42] is reported as 0%; in the data set with CHO [45], “Toxic”.

The record behind these values is ChEMBL document CHEMBL1148993, “UV-mediated genotoxicity of furanoquinoline and of certain tryptophan-derived alkaloids” (J Nat Prod, 1983).
